The source of these data is article PMC5271370, “A High-Content Assay Enables the Automated Screening and Identification of Small Molecules with Specific ALDH1A1-Inhibitory Activity” (PLoS ONE, 2017).

For orientation: IC50 means the concentration that gives 50% inhibition.

One assay concerns the target T1, Human ALDH1A2 (Homo sapiens, UniProt O94788).
T1 construct: purchased MyBioSource MBS1005929
T1 sequence (O94788 1-518): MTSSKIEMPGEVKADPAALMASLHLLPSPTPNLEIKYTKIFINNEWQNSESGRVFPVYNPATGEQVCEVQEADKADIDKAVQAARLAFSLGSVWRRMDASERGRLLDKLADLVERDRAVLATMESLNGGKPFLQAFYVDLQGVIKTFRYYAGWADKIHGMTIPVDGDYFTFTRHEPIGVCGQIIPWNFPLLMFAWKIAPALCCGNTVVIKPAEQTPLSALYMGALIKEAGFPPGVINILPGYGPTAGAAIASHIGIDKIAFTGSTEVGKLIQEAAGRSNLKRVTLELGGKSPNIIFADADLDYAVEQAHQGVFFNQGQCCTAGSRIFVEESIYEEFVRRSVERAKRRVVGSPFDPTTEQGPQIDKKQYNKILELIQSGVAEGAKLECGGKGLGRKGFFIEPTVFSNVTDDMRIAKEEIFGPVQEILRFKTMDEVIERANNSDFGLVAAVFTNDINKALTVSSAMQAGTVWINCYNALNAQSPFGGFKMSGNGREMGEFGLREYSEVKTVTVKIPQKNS
Kind of assay: 1,536-well enzymatic assay (NADH fluorescence), ALDH1A2. The class given is biochemical.
Conditions: not given
An excerpt: (§1) To validate our optimized assay, we assembled a set of 20 previously reported ALDH inhibitors, with varying degrees of target specificity (Table 1 and S4 Fig). […] Briefly, the assay measures the dehydrogenase activity of recombinant human ALDH1A1, ALDH1A2, ALDH1A3, ALDH2 or ALDH3A1 using NAD(P)^+ and either propionaldehyde or benzaldehyde as substrates. An orthogonal resorufin-based assay format was also run with isolated ALDH1A1 to rule out potential false positives due to intrinsic compound fluorescence.
(§2) Human ALDH1A1 and ALDH3A1 were expressed and purified as described elsewhere. Human ALDH2 was purchased from Abcam (ab87415). Human ALDH1A2 and ALDH1A3 were purchased from MyBioSource (MBS1005929; San Diego, CA) and ThermoFisher (11636H07E50), respectively. The inhibitory activity of compounds against ALDHs was measured according to protocols described previously. Briefly, 3 μL of enzyme (final concentrations of 20 nM for ALDH1A1, 50 nM for ALDH1A2, 50 nM for ALDH1A3, 75 nM for ALDH2 and 5 nM for ALDH3A1) in assay buffer (100 mM HEPES pH 7.5 with 0.01% Tween 20) were dispensed into a 1,536-well solid-bottom black plate (Greiner Bio One, Monroe, NC). […] Samples were incubated (room temperature, protected from light) for 15 minutes followed by a 1 μL substrate addition of NAD^+ and Propionaldehyde (final concentrations of 1 mM and 80 μM, respectively) for ALDH1A1, 1A2, 1A3, and ALDH2 or NADP^+ and benzaldehyde (final concentrations of 1 mM and 200 μM, respectively) for ALDH3A1. Plates were centrifuged at 1,000 rpm for 15 seconds, then read in kinetic mode on a ViewLux High-throughput CCD imager (PerkinElmer, Waltham, MA) equipped with standard UV fluorescence optics (340 nm excitation, 450 nm emission) for 5 (ALDH1A1, ALDH1A2, ALDH2, ALDH3A1) or 30 (ALDH1A3) minutes. The change in fluorescence intensity over the 5- or 30-minute reaction period was normalized against no-inhibitor and no-enzyme controls and the resulting percent inhibition data were fitted to a 4-parameter Hill equation. Bay-11 7085 was used as intraplate control. To account for artifacts due to intrinsic compound fluorescence in the above spectrum, compounds were also tested in an orthogonal resorufin assay format with optics of excitation 525 nm/emission 598 nm as described before. The same parameters as the NADH assay were used for the resorufin assay, with the addition of (final) 133 μg/mL diaphorase and 37 μM resazurin to the assay solution. Same controls were used in both formats.
In the case of `O=c1c(-c2ccc(O)cc2)coc2cc(O[C@@H]3O[C@H](CO)[C@@H](O)[C@H](O)[C@H]3O)ccc12` [Daidzin], the IC50 turned out to be 21.5 µM.

In turn, `Cc1cc2c(C(C)C)c(O)c(O)c(C=O)c2c(O)c1-c1c(C)cc2c(C(C)C)c(O)c(O)c(C=O)c2c1O` [Gossypol] returned an IC50 of 5.39 µM.

The same assay, now with this note: hits of dual cell-based screen (Table 2); read-out: Biochemical IC50 ALDH1A2.
With `CC(C)N(C(=O)CCl)c1ccccc1` [Propachlor], the IC50 stood at 0.32 µM.

The same assay, now with this note: validation set; 50 nM enzyme, NAD+ and propionaldehyde; read-out: Biochemical IC50 ALDH1A2.
`COc1ccc(C(=O)CCN(C)C)cc1F` [Aldi-2]: the IC50 was found to be 0.12 µM.

On to `CC(C)(C)c1ccc(S(=O)(=O)/C=C/C#N)cc1` [Bay-11-7085], for which the IC50 was 0.38 µM.

Take `Cc1nc2ccccc2n1S(=O)(=O)c1ccc(F)cc1` [CB7]: the half-inhibitory concentration (IC50) was 15.2 µM.

In the case of `CCOc1ccc(NCC(=O)Nc2ccc(Cl)cc2C)cc1` [CID 725345], the IC50 stood at 0.34 µM.

Consider `COc1cccc2cc(C(=O)CC3(O)C(=O)N(Cc4ccccc4)c4ccccc43)c(=O)oc12` (stereo not drawn) [CID 2929292], for which the IC50 was found to be 3.03 µM.

Regarding `CCN(CC)c1ccc(C=O)cc1` [DEAB, 4-N,N-diethylaminobenzaldehyde], the IC50 came to 3.4 µM.

Regarding `CCN(CC)C(=S)SSC(=S)N(CC)CC` [Disulfiram], the IC50 was 0.14 µM.

With `Nc1ccccc1C(=O)CC(N)C(=O)O` (stereo not drawn) [Kynurenine], the IC50 worked out at 24.1 µM.

`C#CCN(C)Cc1ccccc1` [Pargyline]: the IC50 is 24.1 µM.

For the compound `O=C1Nc2ccccc2C1=O` [indoline-2,3-dione], the IC50 came to 0.68 µM.

CVT-10216: the IC50 was 0.34 µM.

A further assay concerns the target T2, Human ALDH1A3 (Homo sapiens, UniProt P47895).
T2 construct: purchased ThermoFisher 11636H07E50
T2 sequence (P47895 1-512): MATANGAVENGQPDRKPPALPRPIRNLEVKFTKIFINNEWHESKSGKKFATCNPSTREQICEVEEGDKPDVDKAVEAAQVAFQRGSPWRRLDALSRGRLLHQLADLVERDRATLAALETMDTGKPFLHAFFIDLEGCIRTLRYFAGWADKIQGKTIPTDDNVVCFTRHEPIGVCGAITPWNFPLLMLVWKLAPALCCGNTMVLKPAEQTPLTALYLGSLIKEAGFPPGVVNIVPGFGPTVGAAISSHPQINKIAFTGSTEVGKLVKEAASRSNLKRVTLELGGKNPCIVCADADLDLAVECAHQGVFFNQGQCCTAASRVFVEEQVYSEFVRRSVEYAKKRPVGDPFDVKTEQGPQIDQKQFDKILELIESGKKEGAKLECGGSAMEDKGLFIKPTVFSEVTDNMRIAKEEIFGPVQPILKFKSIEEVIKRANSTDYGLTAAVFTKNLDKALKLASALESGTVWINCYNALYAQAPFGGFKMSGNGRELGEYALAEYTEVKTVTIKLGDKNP
Briefly: 1,536-well enzymatic assay (NADH fluorescence), ALDH1A3. It counts as biochemical.
Conditions: not given
From the text: as §1, §2
Turning to `O=c1c(-c2ccc(O)cc2)coc2cc(O[C@@H]3O[C@H](CO)[C@@H](O)[C@H](O)[C@H]3O)ccc12` [Daidzin], half-maximal inhibition (IC50) required 24.1 µM.

In turn, `Cc1cc2c(C(C)C)c(O)c(O)c(C=O)c2c(O)c1-c1c(C)cc2c(C(C)C)c(O)c(O)c(C=O)c2c1O` [Gossypol] came in with an IC50 of 8.55 µM.

Still in this assay, the particulars now being: hits of dual cell-based screen (Table 2); read-out: Biochemical IC50 ALDH1A3.
Regarding `C[S+](=O)([O-])c1ccc(Cn2c3c(c4cc(F)cc(F)c42)CCCC3CC(=O)O)cc1` [L-670596], the IC50 was 35.5 µM.

Consider `CC(C)N(C(=O)CCl)c1ccccc1` [Propachlor], for which the IC50 was found to be 5.62 µM.

The assay is the same for the next values; noted with them: validation set; 50 nM enzyme, NAD+ and propionaldehyde; read-out: Biochemical IC50 ALDH1A3.
On to `CC(C)=CCCC(C)=CC=O` (mixture of isomers) [Citral], for which the IC50 is 2.7 µM.

Regarding `COc1ccc(C(=O)CCN(C)C)cc1F` [Aldi-2], the IC50 worked out at 0.24 µM.

In the case of `CC(C)(C)c1ccc(S(=O)(=O)/C=C/C#N)cc1` [Bay-11-7085], the concentration for half-maximal inhibition (IC50) was found to be 0.68 µM.

In the case of `Cc1nc2ccccc2n1S(=O)(=O)c1ccc(F)cc1` [CB7], the IC50 was determined as 12.1 µM.

Regarding `CCOc1ccc(NCC(=O)Nc2ccc(Cl)cc2C)cc1` [CID 725345], the IC50 came out at 3.82 µM.

On to `COc1cccc2cc(C(=O)CC3(O)C(=O)N(Cc4ccccc4)c4ccccc43)c(=O)oc12` (stereo not drawn) [CID 2929292], for which the IC50 was 24.1 µM.

In the case of `CCN(CC)c1ccc(C=O)cc1` [DEAB, 4-N,N-diethylaminobenzaldehyde], the IC50 was 24.1 µM.

Turning to `CCN(CC)C(=S)SSC(=S)N(CC)CC` [Disulfiram], the IC50 was determined as 0.68 µM.

Take `Nc1ccccc1C(=O)CC(N)C(=O)O` (stereo not drawn) [Kynurenine]: the IC50 was found to be 27 µM.

For `C#CCN(C)Cc1ccccc1` [Pargyline], the IC50 was 17 µM.

As for `O=C1Nc2ccccc2C1=O` [indoline-2,3-dione], the IC50 worked out at 7.62 µM.

Turning to CVT-10216, the IC50 is 27 µM.
